Values quoted from earlier work as cited in US11419872B2, “Phosphoinositide 3-kinase and Src inhibitors for treatment of pancreatic cancer” (Innoplexus AG, priority 2020, dated 2022).
One block for each molecule: values may come before it.

What was measured:
[1] = for adverse events reported: literature reports
[2] = system: primary tumours and metastasis; conditions: pre-clinical animal models
CYP3A4 = CYP3A4 (Homo sapiens, UniProt P08684)
[3] = system: breast cancer cell line MDA-MB-231
[4] = system: gastric cancer cell line MKN-1
[5] = in vivo
[6] = system: colon carcinoma cell line CT26
[7] = system: pancreatic cancer cell line PANC-1; conditions: PANC-1 (Suzuki et al. 2016)
[8] = system: human embryonic kidney cell line HEK293

CYP3A4, sequence (P08684 whole entry): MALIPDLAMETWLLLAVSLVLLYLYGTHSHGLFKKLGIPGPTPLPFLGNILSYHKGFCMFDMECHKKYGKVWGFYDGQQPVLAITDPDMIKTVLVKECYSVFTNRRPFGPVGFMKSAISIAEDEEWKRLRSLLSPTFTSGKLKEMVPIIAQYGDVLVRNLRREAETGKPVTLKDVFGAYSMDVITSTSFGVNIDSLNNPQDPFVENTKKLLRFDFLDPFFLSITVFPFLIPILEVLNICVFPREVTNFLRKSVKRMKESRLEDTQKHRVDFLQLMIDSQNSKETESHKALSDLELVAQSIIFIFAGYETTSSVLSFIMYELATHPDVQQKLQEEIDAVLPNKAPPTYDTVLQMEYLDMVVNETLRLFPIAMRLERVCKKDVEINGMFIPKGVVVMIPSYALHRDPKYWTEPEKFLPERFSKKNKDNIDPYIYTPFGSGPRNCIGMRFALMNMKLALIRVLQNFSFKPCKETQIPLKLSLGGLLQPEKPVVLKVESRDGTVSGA

SMILES: COc1cc(Nc2ncc(F)c(Nc3ccc4c(n3)N(COP(=O)(O)O)C(=O)C(C)(C)O4)n2)cc(OC)c1OC [fostamatinib]
adverse events reported [1]: white blood cell disorder, hematological and hepatobiliary disorders

SMILES: CC[C@H](Nc1ncnc2[nH]cnc12)c1nc2cccc(F)c2c(=O)n1-c1ccccc1 [Idealisib, 5-fluoro-3-phenyl-2-[(1S)-1-(7H-purin-6-ylamino)propyl] quinazolin-4-one]
adverse events reported [1]: pneumonitis, hematological disorder, diarrhea and colitis

SMILES: O=C(Cc1ccc(-c2ccc(OCCN3CCOCC3)cc2)cn1)NCc1ccccc1 [KX2-391, N-benzyl-2-[5-[4-(2-morpholin-4-ylethoxy)phenyl]pyridin-2-yl] acetamide]
growth of primary tumours and metastasis [2]: inhibits the growth of both primary tumours and metastasis

SMILES: COc1c(OCCCN2CCOCC2)ccc2c1N=C(NC(=O)c1cnc(N)nc1)N1CCN=C21 [copanlisib, amino-N-[7-methoxy-8-(3-morpholin-4-ylpropoxy)-2,3-dihydro-1 H-imidazo [1,2-c]quinazolin-5-ylidene] pyrimidine-5-carboxamide]
adverse events reported [1]: cardiac disorders, glucose metabolism disorders or neurological disorders

primary metabolising enzyme (CYP3A4): primarily metabolized by CYP3A4
SMILES: C[C@H](Nc1ncnc2[nH]cnc12)c1cc2cccc(Cl)c2c(=O)n1-c1ccccc1 [duvelisib, 8-Chloro-2-phenyl-3-[(1S)-1-(3H-purin-6-ylamino)ethyl]-1(2H)-isoquinolinone]
adverse events reported [1]: diarrhea or colitis, cutaneous reactions, infections and pneumonitis
safety profile ([1]; patients with advanced hematologic malignancies): manageable safety profile

SMILES: O=C1CCc2ccc(OCCCCN3CCN(c4cccc(Cl)c4Cl)CC3)cc2N1 [aripiprazole, 7-[4-[4-(2,3-dichlorophenyl)piperazin-1-yl]butoxy]-3,4-dihydro-1Hquinolin-2-one]
cell viability [3]: reduced the viability
Log P: 4.55
cell viability [4]: reduced the viability
cell viability (glioma cell line U251): reduced the viability
elimination half-life [5]: approximately 75 hours
cell viability [6]: reduced the viability
cell viability (glioma cell line LN428): reduced the viability
cell death and number of viable cells [7]: induced cell death and accordingly decreased the number of viable cells
cell viability [8]: reduced the viability

SMILES: Cc1c(O)c(=O)ccn1C [deferiprone]
adverse events reported [1]: joint pain, stiffness or swelling
